The values below come from patent publication US20220048939A1, “AROMATIC RING COMPOUND” (HAIKOU KAIBAO INDUSTRIAL CO., LTD, priority 2019, published 2022).

In data set [1] the test system is KM mice (tail suspension model of behavioral despair). Kind of data set: Tail suspension test after single intragastric (oral) administration. As to conditions: tail suspension test 1 h after administration, last 4 min, mean ± SEM. Format: in vivo. On the procedure: (§1) The experimental animals were male SPF grade KM mice purchased from Kunming Medical University, weighed 21-24 g, certificate no. SCXK(Dian)K2015-0002. The experimental animals were bred in individually ventilated cages (IVCs) in animal room in Dianqing Biotechnology, Ltd., Yunnan (facility no. 13-11-078 and 13-11-079; manufacture date: Nov. 24, 2013). The room temperature was controlled at 22-24° C. with humidity at 40-70% and 12-hour light/dark cycle (7:00 am/19:00 pm). The cages and padding were changed twice a week. The raising method was group raising and there were 10 mice accommodated in each cage. The feed was sterilized feed from Jiangsu Xietong Medical Bioengineering, Ltd., certificate no.: (2014)01008. Feed was supplied once daily with free access . Tap water was supplied in boxes with free access.
A. Behavioral testing was performed in different treatment groups (1.0 mg/kg, 5.0 mg/kg, 10.0 mg/kg, 15.0 mg/kg, 30.0 mg/kg) 1 h after intragastric (i.g.) administration of the compound of formula 1;
B. In the negative control group receiving normal saline (NS), the behavioral testing was conducted at the same time;
C. In the positive control group receiving imipramine (IMI; 15 mg/kg), the behavioral testing was conducted at the same time;
Route of administration: The test compound of formula 1, normal saline or imipramine was administered by intragatric administration according to the experimental design.
Time of administration: The animals were accommodated to the experimental environment for 1 hour, administrated by intragatric administration, and subjected to tail suspension test 1 hour after the administration.
Test criterion: The mice were subjected to a 6-minute tail suspension test, and the cumulative time of immobility in the first 2 minutes and the last 4 minutes was recorded. The criterion for immobility is that the mouse stops struggling and remains steady.
(§2) A depression model of behavioral despair, ie. tail suspension model, was used. Animals were accommodated to the company's breeding environment for 1 day. During the adaptation, animals with non-smooth and unclean hair, high alertness or aggressivity were excluded.
(§3) Animals were accommodated to the experimental environment for 1 hour, weighed, and randomized according to the body weight into a normal saline control group, an imipramine control group and treatment groups with different doses.
(§4) In the tail suspension test, animals in all groups were administered with corresponding drugs by a single intragastric administration. 1 h after the administration, tails of mice were fixed with medical tape at about 1-2 cm from the end, such that the mice were hanged in the tail suspension box with the heads about 10 cm above the bottom of the box. The observation started immediately after hanging. In the 6-minute observation, the cumulative time of immobility in the first 2 minutes and the last 4 minutes was recorded. A video was recorded with obviously contrasted background with the hair color of the mice, for example, black background was used for white mice.
(§5) The cumulative time of immobility within the last 4 minutes was compared between the test compound groups and the normal saline group using SPSS 11.0 software. One-way analysis of variance (ANOVA) was used for comparison among multiple groups, and independent sample T test was performed for comparisons in pairs. P <0.05 indicates a statistically significant difference. All statistical diagrams were plotted in mean ±SEM using Origin 8.0 software.

A short description of data set [2]: Solubility in water (description of test compound). Format: physicochemical.
In a further data set the test system is NMDA receptor. Kind of data set: Whole-cell NMDAR current (NMDAR-EPSC) recording in hippocampal CA1 pyramidal cells of brain slices. Format: cell-based, mice. The following applies: hippocampal CA1 pyramidal cells at +40 mV, last 10 min of 20 min. On the procedure: Male C57BL/6 mice, aged 3-9 weeks, were purchased from Beijing Vital River Laboratory Animal Technology Co., Ltd. (Beijing, China). The animals were bred at 23 ±1° C. The room temperature was controlled at 22-24° C. with humidity at 40-70% and 12-hour light/dark cycle (7:00 am/19:00 pm).
A. The baseline whole-cell NMDAR current was recorded in 10 minutes before the compound of formula 1 (0.76, 3.8 mM/L) was dissolved in artificial cerebrospinal fluid (vehicle) and added with the brain slice circulation fluid.
B. An identical volume of artificial cerebrospinal fluid (vehicle) was added with the brain slice circulation fluid.
Treatment: The brain slice circulation fluid was directly added.
Time of treatment: 10 minutes after baseline recording.
Test item: depolarization voltage-induced whole-cell NMDAR receptor currents.
Hippocampal brain slices: The animals were anesthetized with isoflurane and the brains were collected quickly. […]
Whole-cell NMDAR current recording: NMDAR whole cell EPSC recording was performed in hippocampal CA1 pyramidal cells. […] The electrical signal in whole cells was recorded using a Clampfit 10.3 software (Axon Instruments) equipped with an Axopatch-700B amplifier (Axon Instruments, Foster City, Calif.) and a Digiclata 1440A digital-to-analog converter, with filtering set at 2.8 kHz and sampling at 10 kHz. […]

Data set [3] relates to KM mice (tail suspension model of behavioral despair). In words: Tail suspension test after single intraperitoneal injection. Format: in vivo. The following applies: tail suspension test 0.5 h after administration, last 4 min, mean ± SEM. On the procedure: as §1, with “access.” for “access .”
A. Behavioral testing was performed in different treatment groups (1.0 mg/kg, 5.0 mg/kg, 10.0 mg/kg, 20.0 mg/kg) 0.5 h after intraperitoneal (i.p.) injection of the compound of formula 1;
B. In the control group receiving normal saline (NS), the behavioral testing was conducted at the same time;
C. In the control group receiving imipramine (IMI; 15 mg/kg), the behavioral testing was conducted at the same time;
Route of administration: The test compound of formula 1, normal saline or imipramine was administered by intraperitoneal injection according to the experimental design.
Time of administration: The animals were accommodated to the experimental environment for 1 hour, administrated by intraperitoneal injection and subjected to tail suspension test 0.5 hour after the administration.
Test criterion: The mice were subjected to a 6-minute tail suspension test, and the cumulative time of immobility in the first 2 minutes and the last 4 minutes was recorded. The criterion for immobility was that the mouse stops struggling and remains steady.
as §2, §3
as §4, with “groups for tail suspension test” for “groups”, “intraperitoneal injection. 0.5” for “intragastric administration. 1”
as §5

For the compound `Cc1ccc(O[C@@H]2OC(CO)[C@@H](O)[C@H](O)C2O)cc1O[C@@H]1OC(CO)[C@@H](O)[C@H](O)C1O` (some centres unmarked) [Compounds of formula 1], the “Time of immobility (% of NS)” value in data set [1] (1 mg/kg i.g.) was 87.14 ± 11.27 % of NS; in data set [1] (5 mg/kg i.g.), 72.67 ± 7.89 % of NS; in data set [1] (10 mg/kg i.g.), 66.86 ± 8.80 % of NS; in data set [1] (15 mg/kg i.g.) it was 68.33 ± 7.17 % of NS; in data set [1] (30 mg/kg i.g.) it was 77.38 ± 6.00 % of NS; in data set [3] (1 mg/kg i.p.) it was 104.02 ± 16.80 % of NS. Also, the “Time of immobility (% of NS)” value in data set [3] (5 mg/kg i.p.) is listed as 72.12 ± 8.57 % of NS; in data set [3] (10 mg/kg i.p.), 60.44 ± 7.53 % of NS; in data set [3] (20 mg/kg i.p.) it was 104.66 ± 14.75 % of NS. In addition, in data set [2], the Solubility in water result is recorded as “easily soluble in water”. The “NMDAR current (% of Baseline)” value was 108.80 ± 5.86 % of Baseline in the data set with NMDA receptor (0.76 mM/L in circulating artificial cerebrospinal fluid) and 155.53 ± 20.85 % of Baseline in the data set with NMDA receptor (3.8 mM/L in circulating artificial cerebrospinal fluid).
Take `CN(C)CCCN1c2ccccc2CCc2ccccc21` [IMI, imipramine, reference compound]: the results for the “Time of immobility (% of NS)” value in data set [1] (15 mg/kg i.g.) and in data set [3] (15 mg/kg i.p.) were 58.64 ± 5.42 % of NS and 58.12 ± 5.66 % of NS, respectively.
